# From patent US20260344661A1, “USE OF AN ALKYLETHER SULFATE FOR IMPROVING THE EFFICACY OF HERBICIDES” (BASF SE, priority 2022, published 2026)
# Experiments:
# [1] = test system: HORVW (winter barley); test: Greenhouse post-emergence weed control, damage vs untreated (HORVW); type: in vivo, Hordeum vulgare; conditions: 20 DAT, adjuvant g ai/ha: none (CE1-A)
# [2] = test system: AVEFA (wild oat); test: Greenhouse post-emergence weed control, damage vs untreated (AVEFA); type: in vivo, Avena fatua; conditions: adjuvant g ai/ha: none (CE1-A)
# Experimental: (§1) A greenhouse study was conducted to evaluate the effect of the alkylether sulfates of formula (I) and other adjuvants on the weed control efficacy of glufosinate. Seedlings of grass plants (AVEFA, ECHCG, DIGSA and SETVI) and broadleaf weeds (KCHSC, CHEAL, AMAPA, AMATA and ABUTH) were grown to a height of 3 to 20 cm, depending on the plant habit in 10×10×10 cm pots filled with sandy planting soil (Limburgerhof soil). The weeds were treated with postemergence applications of glufosinate ammonium at the respective application rates given in the following tables, either alone or combined with various amounts of the respective adjuvants.
# (§2) For this, the herbicide formulation and the respective adjuvant were introduced into tap water to obtain the spray liquor. […] The spray liquor was then applied to the plant a spray volume of 200 l/ha using a sprayer (XR Teejet 110015).
# (§3) The test period extended over 21 days. During this time, the plants were tended, and their response to the treatments with active compound was evaluated.
# (§4) The evaluation for the damage caused by the chemical compositions was carried out using a scale from 0 to 100%, compared to the untreated control plants. Here, 0 means no damage and 100 means complete destruction of the plants.
# (§5) The plants used in the greenhouse experiments belonged to the following species:
# (§6) The results are summarized in the following tables 1 to 15 that show the applied doses of the individual actives as gram of active ingredient per hectare (g ai/ha), the herbicidal activity of the individual […]
# [3] = test system: ECHCG (barnyardgrass); test: Greenhouse post-emergence weed control, damage vs untreated (ECHCG); type: in vivo, Echinochloa crus-galli; conditions: adjuvant g ai/ha: none (CE1-A)
# Experimental: as §1, §2, §3, §4, §5, §6
# [4] = test system: DIGSA (large crabgrass); test: Greenhouse post-emergence weed control, damage vs untreated (DIGSA); type: in vivo, Digitaria sanguinalis; conditions: 20 DAT, adjuvant g ai/ha: none (CE1-A)
# Experimental: as §1, §2, §3, §4
# (§7) The plants used in the greenhouse experiments belonged to the following species: […]
# [5] = test system: SETVI (green foxtail); test: Greenhouse post-emergence weed control, damage vs untreated (SETVI); type: in vivo, Setaria viridis; conditions: adjuvant g ai/ha: none (CE1-A)
# Experimental: as §1, §2, §3, §4, §5, §6
# [6] = test system: Øgras (average value of AVEFA, ECHCG, DIGSA and SETVI); test: Greenhouse post-emergence weed control, average over grasses (Øgras); type: in vivo; conditions: adjuvant g ai/ha: none (CE1-A)
# Experimental: as §1, §2, §3, §4, §5, §6
# [7] = test system: KCHSC (kochia); test: Greenhouse post-emergence weed control, damage vs untreated (KCHSC); type: in vivo, Kochia scoparia; conditions: 20 DAT, adjuvant g ai/ha: none (CE1-A)
# Experimental: as §1, §2, §3, §4, §7
# [8] = test system: CHEAL (lambsquarter); test: Greenhouse post-emergence weed control, damage vs untreated (CHEAL); type: in vivo, Chenopodium album; conditions: adjuvant g ai/ha: none (CE1-A)
# Experimental: as §1, §2, §3, §4, §5, §6
# [9] = test system: AMAPA (palmer amaranth); test: Greenhouse post-emergence weed control, damage vs untreated (AMAPA); type: in vivo, Amaranthus palmeri; conditions: 20 DAT, adjuvant g ai/ha: none (CE1-A)
# Experimental: as §1, §2, §3, §4, §5
# (§8) The results are summarized in the following tables 1 to 15 that show the applied doses of the individual actives as gram of active ingredient per hectare (g ai/ha), the herbicidal activity of the individual actives and of their combinations in post-emergence application assessed 14 and 28 day after treatment (DAT), respectively.
# [10] = test system: AMATA (common water hemp); test: Greenhouse post-emergence weed control, damage vs untreated (AMATA); type: in vivo, Amaranthus tuberculatus; conditions: 20 DAT, adjuvant g ai/ha: none (CE1-A)
# Experimental: as §1, §2, §3, §4, §5, §8
# [11] = test system: ABUTH (velvetleaf); test: Greenhouse post-emergence weed control, damage vs untreated (ABUTH); type: in vivo, Abutilon theophrasti; conditions: 20 DAT, adjuvant g ai/ha: none (CE1-A)
# Experimental: as §1, §2
# […] During this time, the plants were tended, and their response to the treatments with active compound was evaluated.
# as §4, §7
# [12] = test system: ØBLV (average value of KCHSC, CHEAL, AMAPA, AMATA and ABUTH); test: Greenhouse post-emergence weed control, average over broadleaf weeds (ØBLV); type: in vivo; conditions: 20 DAT, adjuvant g ai/ha: none (CE1-A)
# Experimental: as §1, §2, §3, §4, §5, §8
# [13] = 75 g ai/ha glufosinate rac., 56 (IE1-A), 62.125 (IE1-B), 51.625 (CE2-A, CE2-B), 55.75 (CE2-C), 66.75 (CE2-D), 103.25 (CE2-E)
# [14] = 150 g ai/ha glufosinate rac., 112 (IE1-A), 124.25 (IE1-B), 103.25 (CE2-A, CE2-B), 111.5 (CE2-C), 133.5 (CE2-D), 206.5 (CE2-E)
# [15] = 300 g ai/ha glufosinate rac., 223 (IE1-A, CE2-C), 248.5 (IE1-B), 206.5 (CE2-A, CE2-B), 267 (CE2-D), 413 (CE2-E)
# [16] = 600 g ai/ha glufosinate rac., 446 (IE1-A, CE2-C), 497 (IE1-B), 413 (CE2-A, CE2-B), 534 (CE2-D), 826 (CE2-E)
structure (smiles),measurement,setting,value
"CP(=O)(O)CCC(N)C(=O)O.N (racemic) [CE1-A, ammonium (2RS)-2-amino-4-(methylphosphinato)butyric acid]",% activity,[1]; [13],0%
same,% activity,[1]; [14],0%
same,% activity,[1]; [15],0%
same,% activity,[2]; [13],5%
same,% activity,[2]; [14],0%
same,% activity,[2]; [15],10%
same,% activity,[2]; [16],25%
same,% activity,[3]; [13],0%
same,% activity,[3]; [14],0%
same,% activity,[3]; [15],0%
same,% activity,[3]; [16],0%
same,% activity,[4]; [13],0%
same,% activity,[4]; [14],0%
same,% activity,[4]; [15],50%
same,% activity,[4]; [16],80%
same,% activity,[5]; [13],80%
same,% activity,[5]; [14],95%
same,% activity,[5]; [15],98%
same,% activity,[5]; [16],98%
same,% activity (Øgras),[6]; [13],21%
same,% activity (Øgras),[6]; [14],24%
same,% activity (Øgras),[6]; [15],40%
same,% activity (Øgras),[6]; [16],51%
same,% activity,[7]; [13],0%
same,% activity,[7]; [14],0%
same,% activity,[7]; [15],5%
same,% activity,[7]; [16],20%
same,% activity,[8]; [13],0%
same,% activity,[8]; [14],0%
same,% activity,[8]; [15],10%
same,% activity,[8]; [16],10%
same,% activity,[9]; [13],50%
same,% activity,[9]; [14],98%
same,% activity,[9]; [15],98%
same,% activity,[9]; [16],98%
same,% activity,[10]; [13],20%
same,% activity,[10]; [14],98%
same,% activity,[10]; [15],85%
same,% activity,[10]; [16],98%
same,% activity,[11]; [13],5%
same,% activity,[11]; [14],20%
same,% activity,[11]; [15],75%
same,% activity,[11]; [16],60%
same,% activity (ØBLV),[12]; [13],15%
same,% activity (ØBLV),[12]; [14],43%
same,% activity (ØBLV),[12]; [15],55%
same,% activity (ØBLV),[12]; [16],57%
